In experiment [1] the test system is Acanthocheilonema viteae. In words: Antifilarial activity against Acanthocheilonema viteae infected Mastomys coucha assessed as microfilariacidal activity at 50 mg/kg, ip for 5 days relative to control. Type of experiment: functional.
The test system of experiment [2] is Acanthocheilonema viteae. In words: Antifilarial activity against Acanthocheilonema viteae infected Mastomys coucha assessed as macrofilariacidal activity at 50 mg/kg, ip for 5 days relative to control. Format: functional.
In experiment [3] the test system is Acanthocheilonema viteae. In words: Antifilarial activity against Acanthocheilonema viteae infected Mastomys coucha assessed as sterilization of female worms at 50 mg/kg, ip for 5 days relative to control. Format: functional, organism-based. Also on record: dose 50 mg/kg.
The test system of experiment [4] is Acanthocheilonema viteae. In words: Antifilarial activity against Acanthocheilonema viteae infected Mastomys coucha assessed as macrofilariacidal activity at 200 mg/kg, ip for 5 days relative to control. Format: functional. The conditions noted are these: route intraperitoneal.
For experiment [5], the system named is Acanthocheilonema viteae. In words: Antifilarial activity against Acanthocheilonema viteae infected Mastomys coucha assessed as sterilization of female worms at 100 mg/kg, po for 5 days relative to control. Type of experiment: functional.

Calls of active or inactive are those of the source. No cut-off for these calls is given here.

Take `CC(=O)OC1CCCCC1Nc1ccccc1` (stereo not given): the outcome in the experiment with Acanthocheilonema viteae [1], in the experiment with Acanthocheilonema viteae [2] and with Acanthocheilonema viteae [3] was inactive.

For `CC(=O)OC(C)Nc1ccco1` (stereo not given), the result in the experiment with Acanthocheilonema viteae [1], with Acanthocheilonema viteae [2] and in the experiment on Acanthocheilonema viteae [3] was inactive.

Consider `CC(=O)OC(C)N1CCC(Cc2ccccc2)CC1` (stereo not given), for which the result in the experiment on Acanthocheilonema viteae [1] and with Acanthocheilonema viteae [3] was inactive. In addition, the Activity with Acanthocheilonema viteae [4] is 83.4%.

Regarding `CC(=O)OC1CCCCC1N1CCC(Cc2ccccc2)CC1` (stereo not given), the outcome in the experiment with Acanthocheilonema viteae [1], in the experiment with Acanthocheilonema viteae [2] and with Acanthocheilonema viteae [3] was inactive.

For the molecule `CN1CCN(C2CCCCC2O)CC1` (stereo not given), the result in the experiment on Acanthocheilonema viteae [1] and with Acanthocheilonema viteae [3] was inactive.

Take `CC(=O)OC1CCCCC1N1CCN(C)CC1` (stereo not given): the result with Acanthocheilonema viteae [1], in the experiment with Acanthocheilonema viteae [2] and in the experiment on Acanthocheilonema viteae [3] was inactive.

Regarding `OC1CCCCC1N1CCCCC1` (stereo not given), the outcome in the experiment with Acanthocheilonema viteae [1] and in the experiment with Acanthocheilonema viteae [3] was inactive. Moreover, in the experiment with Acanthocheilonema viteae [2] (route intraperitoneal), the Activity amounted to 88.9%.

As for `CC(=O)OC1CCCCC1N1CCOCC1` (stereo not given), the result in the experiment on Acanthocheilonema viteae [1], with Acanthocheilonema viteae [2] and in the experiment on Acanthocheilonema viteae [3] was inactive.

In the case of `CC(=O)OC1CCCCC1N1CCCCC1` (stereo not given), the outcome in the experiment with Acanthocheilonema viteae [1], in the experiment with Acanthocheilonema viteae [2] and with Acanthocheilonema viteae [3] was inactive.

Turning to `OC1CCCCC1N1CCC(Cc2ccccc2)CC1` (stereo not given), the result in the experiment on Acanthocheilonema viteae [1], in the experiment with Acanthocheilonema viteae [2] and with Acanthocheilonema viteae [3] was inactive.

For the molecule `CCN(CC)C(=O)N1CCN(C)CC1` [DIETHYLCARBAMAZINE], the Activity with Acanthocheilonema viteae [1] (route intraperitoneal) was 90%. The result with Acanthocheilonema viteae [2] and in the experiment on Acanthocheilonema viteae [3] was inactive.

For `CC(O)N1CCC(Cc2ccccc2)CC1` (stereo not given), the outcome with Acanthocheilonema viteae [1], with Acanthocheilonema viteae [2] and with Acanthocheilonema viteae [3] was inactive.

Regarding `OC1CCCCC1N1CCOCC1` (stereo not given), the result in the experiment with Acanthocheilonema viteae [1], in the experiment with Acanthocheilonema viteae [2] and with Acanthocheilonema viteae [3] was inactive.

With `CC(O)N1CCCCC1C` (stereo not given), the result in the experiment on Acanthocheilonema viteae [1], with Acanthocheilonema viteae [2] and with Acanthocheilonema viteae [3] was inactive.

As to `CC(O)Nc1ccco1` (stereo not given), the result in the experiment on Acanthocheilonema viteae [1] was inactive. The Activity amounted to 82% in the experiment with Acanthocheilonema viteae [5] and 81.3% in the experiment with Acanthocheilonema viteae [4].

Turning to `CC(=O)OC(C)N1CCCCC1C` (stereo not given), the outcome with Acanthocheilonema viteae [1], in the experiment with Acanthocheilonema viteae [2] and in the experiment on Acanthocheilonema viteae [3] was inactive.

For `OC1CCCCC1Nc1ccccc1` (stereo not given), the result in the experiment on Acanthocheilonema viteae [1], in the experiment with Acanthocheilonema viteae [2] and in the experiment on Acanthocheilonema viteae [3] was inactive.

These data come from ChEMBL document CHEMBL3046850, “In vivo antifilarial activity of some cyclic and acylic alcohols” (2011).
